In patent US9498467B2, “Treatment of chronic neutrophilic leukemia (CNL) and atypical chronic myeloid leukemia (aCML) by inhibitors of JAK1” (Incyte Corporation, priority 2014, dated 2016) one finds JAK2/JAK1 and IC50 data, which are given here for 16 molecules.

Molecules are shown by their SMILES.

In test [1] the target is T1, human JAK2 (a.a. 828-1132) (Homo sapiens, UniProt O60674).
T1 construct: JAK2 (a.a. 828-1132); made in house; host or cells: insect cells (baculovirus)
The test is described as follows: In vitro JAK kinase assay (HTRF), JAK2. The format is biochemical. As to conditions: ratio of IC50s at 1 mM ATP. A general note: TR-FRET usually uses a lanthanide donor and a delayed reading to cut background.

Test [2] concerns the target T2, human JAK1 (a.a. 837-1142) (Homo sapiens, UniProt P23458).
T2 construct: human JAK1 (a.a. 837-1142); made in house; host or cells: insect cells (baculovirus)
The test is described as follows: In vitro JAK kinase assay (HTRF), JAK1. It is filed as biochemical. As to conditions: 1 mM ATP.

T2 sequence (P23458 849-1154): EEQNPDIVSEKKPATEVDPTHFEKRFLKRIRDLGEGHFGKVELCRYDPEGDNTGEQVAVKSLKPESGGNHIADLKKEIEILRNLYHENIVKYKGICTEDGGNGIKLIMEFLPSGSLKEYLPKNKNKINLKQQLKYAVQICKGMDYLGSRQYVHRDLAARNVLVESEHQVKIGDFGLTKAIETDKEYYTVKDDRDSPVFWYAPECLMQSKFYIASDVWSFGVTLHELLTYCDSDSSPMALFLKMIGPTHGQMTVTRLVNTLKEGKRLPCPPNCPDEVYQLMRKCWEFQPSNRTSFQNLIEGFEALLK
T1 sequence (O60674 828-1132): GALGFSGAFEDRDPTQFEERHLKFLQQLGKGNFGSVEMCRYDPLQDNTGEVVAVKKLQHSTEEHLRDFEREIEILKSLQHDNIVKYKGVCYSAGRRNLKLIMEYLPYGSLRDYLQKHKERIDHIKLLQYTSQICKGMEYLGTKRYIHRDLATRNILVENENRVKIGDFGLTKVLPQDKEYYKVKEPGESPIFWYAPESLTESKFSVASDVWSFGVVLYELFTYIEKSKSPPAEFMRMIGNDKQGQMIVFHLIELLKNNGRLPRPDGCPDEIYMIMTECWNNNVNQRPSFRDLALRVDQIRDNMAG

For orientation: IC50 means the concentration needed to halve the response being measured. The low end stands for greater potency, the high end for weaker potency. As to `N#CCC(C1CCN(c2cccc(Cl)n2)C1)n1cc(-c2ncnc3[nH]ccc23)cn1` (single isomer, unassigned) [Compound 3, 3-[1-(6-chloropyridin-2-yl)pyrrolidin-3-yl]-3-[4-(7H-pyrrolo[2,3-d]pyrimidin-4-yl)-1H-pyrazol-1-yl]propanenitrile], the JAK2/JAK1 in test [1] was over 10. The concentration for half-maximal inhibition (IC50) in test [2] was under 0.01 µM.

Consider `N#CCC(C1CCN(c2nc3cccnc3o2)C1)n1cc(-c2ncnc3[nH]ccc23)cn1` (centres unmarked) [Compound 4, 3-(1-[1,3]oxazolo[5,4-b]pyridin-2-ylpyrrolidin-3-yl)-3-[4-(7H-pyrrolo[2,3-d]pyrimidin-4-yl)-1H-pyrazol-1-yl]propanenitrile], for which, in test [1], the JAK2/JAK1 is over 10. In test [2], this molecule yielded a 50% inhibitory concentration (IC50) of under 0.01 µM.

On to `N#CCC(CN1CCN(C(=O)c2ccc(C#N)cc2F)CC1)n1cc(-c2ncnc3[nH]ccc23)cn1` (centres unmarked) [Compound 5], for which, in test [1], the JAK2/JAK1 is over 10. The same molecule showed a half-maximal inhibitory concentration (IC50) in test [2] of under 0.01 µM.

Regarding `N#CCC(CN1CCN(C(=O)c2ccc(C#N)cc2F)CC1)n1ccc(-c2ncnc3[nH]ccc23)c1` (centres unmarked) [Compound 6, 4-[(4-{3-cyano-2-[3-(7H-pyrrolo[2,3-d]pyrimidin-4-yl)-1H-pyrrol-1-yl]propyl}piperazin-1-yl)carbonyl]-3-fluorobenzonitrile], the JAK2/JAK1 in test [1] is recorded as over 10. This molecule also registered an IC50 in test [2] of under 0.01 µM.

With `N#CCC1(n2cc(-c3ncnc4[nH]ccc34)cn2)CN(C2CCN(C(=O)Nc3ccc(F)cc3C(F)(F)F)CC2)C1` [Compound 8, 4-{3-(Cyanomethyl)-3-[4-(7H-pyrrolo[2,3-d]pyrimidin-4-yl)-1H-pyrazol-1-yl]azetidin-1-yl}-N-[4-fluoro-2-(trifluoromethyl)phenyl] piperidine-1-carboxamide], the JAK2/JAK1 in test [1] is recorded as over 10. Moreover, the IC50 in test [2] was under 0.01 µM.

For `N#CCC1(n2cc(-c3ncnc4[nH]ccc34)cn2)CN(C2CCN(C(=O)c3ccnc(C(F)(F)F)n3)CC2)C1` [Compound 9, [3-[4-(7H-pyrrolo[2,3-d]pyrimidin-4-yl)-1H-pyrazol-1-yl]-1-(1-{[2-(trifluoromethyl)pyrimidin-4-yl]carbonyl}piperidin-4-yl)azetidin-3-yl]acetonitrile], the JAK2/JAK1 in test [1] is on record as over 10. The same molecule returned an IC50 in test [2] of under 0.01 µM.

As to `N#CC[C@]1(n2cc(-c3ncnc4[nH]ccc34)cn2)C[C@H](N2CCN(C(=O)c3ccnc(C(F)(F)F)n3)CC2)C1` [Compound 10, [trans-1-[4-(7H-pyrrolo[2,3-d]pyrimidin-4-yl)-1H-pyrazol-1-yl]-3-(4-{[2-(trifluoromethyl)pyrimidin-4-yl]carbonyl}piperazin-1-yl)cyclobutyl] acetonitrile], the JAK2/JAK1 in test [1] was over 10. This molecule also returned a concentration for half-maximal inhibition (IC50) in test [2] of under 0.01 µM.

For the molecule `N#CC[C@]1(n2cc(-c3ncnc4[nH]ccc34)cn2)C[C@H](N2CCC(Oc3cc(CN4CC(O)C4)cc(C(F)(F)F)n3)CC2)C1` [Compound 11, {trans-3-(4-{[4-[(3-hydroxyazetidin-1-yl)methyl]-6-(trifluoromethyl)pyridin-2-yl]oxy}piperidin-1-yl)-1-[4-(7H-pyrrolo[2,3-d]pyrimidin-4-yl)-1H-pyrazol-1-yl]cyclobutyl} acetonitrile], in test [1], the JAK2/JAK1 is given as over 10. Moreover, in test [2], the IC50 is under 0.01 µM.

Take `N#CC[C@]1(n2cc(-c3ncnc4[nH]ccc34)cn2)C[C@H](N2CCC(Oc3cc(CN4CCC[C@H]4CO)cc(C(F)(F)F)n3)CC2)C1` [Compound 12, {trans-3-(4-{[4-{[(2S)-2-(hydroxymethyl)pyrrolidin-1-yl]methyl}-6-(trifluoromethyl)pyridin-2-yl]oxy}piperidin-1-yl)-1-[4-(7H-pyrrolo[2,3-d]pyrimidin-4-yl)-1H-pyrazol-1-yl]cyclobutyl} acetonitrile]: the JAK2/JAK1 in test [1] is over 10. The molecule further showed a half-maximal inhibitory concentration (IC50) in test [2] of under 0.01 µM.

`N#CC[C@]1(n2cc(-c3ncnc4[nH]ccc34)cn2)C[C@H](N2CCC(Oc3cc(CN4CCC[C@@H]4CO)cc(C(F)(F)F)n3)CC2)C1` [Compound 13, {trans-3-(4-{[4-{[(2R)-2-(hydroxymethyl)pyrrolidin-1-yl]methyl}-6-(trifluoromethyl)pyridin-2-yl]oxy}piperidin-1-yl)-1-[4-(7H-pyrrolo[2,3-d]pyrimidin-4-yl)-1H-pyrazol-1-yl]cyclobutyl} acetonitrile]: the JAK2/JAK1 in test [1] is reported as over 10. In addition, in test [2], the IC50 is under 0.01 µM.

`C[C@H](NC(=O)c1cc(F)c(N2CC(CC#N)(n3cc(-c4ncnc5[nH]ccc45)cn3)C2)cc1F)C(F)(F)F` [Compound 16, 4-{3-(cyanomethyl)-3-[4-(7H-pyrrolo[2,3-d]pyrimidin-4-yl)-1H-pyrazol-1-yl]azetidin-1-yl}-2,5-difluoro-N-[(1S)-2,2,2-trifluoro-1-methylethyl]benzamide]: the JAK2/JAK1 in test [1] was over 10. The same molecule registered a concentration for half-maximal inhibition (IC50) in test [2] of under 0.01 µM.

On to `N#CCC1(n2cc(-c3ncnc4[nH]ccc34)cn2)CN([C@H]2CC[C@@H](Oc3cc(CCO)nc(C(F)(F)F)n3)CC2)C1` [Compound 18, {1-(cis-4-{[6-(2-hydroxyethyl)-2-(trifluoromethyl)pyrimidin-4-yl]oxy}cyclohexyl)-3-[4-(7H-pyrrolo[2,3-d]pyrimidin-4-yl)-1H-pyrazol-1-yl]azetidin-3-yl}acetonitrile], for which the JAK2/JAK1 in test [1] is over 10. Also, in test [2], the IC50 is under 0.01 µM.

Turning to `CCNCc1cc(O[C@H]2CC[C@@H](N3CC(CC#N)(n4cc(-c5ncnc6[nH]ccc56)cn4)C3)CC2)nc(C(F)(F)F)c1` [Compound 19, {1-(cis-4-{[4-[(ethylamino)methyl]-6-(trifluoromethyl)pyridin-2-yl]oxy}cyclohexyl)-3-[4-(7H-pyrrolo[2,3-d]pyrimidin-4-yl)-1H-pyrazol-1-yl]azetidin-3-yl}acetonitrile], the JAK2/JAK1 in test [1] is over 10. The IC50 in test [2] is under 0.01 µM.

With `CC(C)(O)c1cc(O[C@H]2CC[C@@H](N3CC(CC#N)(n4cc(-c5ncnc6[nH]ccc56)cn4)C3)CC2)nc(C(F)(F)F)c1` [Compound 20, {1-(cis-4-{[4-(1-hydroxy-1-methylethyl)-6-(trifluoromethyl)pyridin-2-yl]oxy}cyclohexyl)-3-[4-(7H-pyrrolo[2,3-d]pyrimidin-4-yl)-1H-pyrazol-1-yl]azetidin-3-yl}acetonitrile], the JAK2/JAK1 in test [1] is over 10. Also, the half-inhibitory concentration (IC50) in test [2] is under 0.01 µM.

As for `N#CCC1(n2cc(-c3ncnc4[nH]ccc34)cn2)CN([C@H]2CC[C@@H](Oc3cc(CN4CC[C@@H](O)C4)cc(C(F)(F)F)n3)CC2)C1` [Compound 21, {1-(cis-4-{[4-{[(3R)-3-hydroxypyrrolidin-1-yl]methyl}-6-(trifluoromethyl)pyridin-2-yl]oxy}cyclohexyl)-3-[4-(7H-pyrrolo[2,3-d]pyrimidin-4-yl)-1H-pyrazol-1-yl]azetidin-3-yl}acetonitrile], the JAK2/JAK1 in test [1] was over 10. For the same molecule, the 50% inhibitory concentration (IC50) in test [2] was under 0.01 µM.

Regarding `N#CCC1(n2cc(-c3ncnc4[nH]ccc34)cn2)CN([C@H]2CC[C@@H](Oc3cc(CN4CC[C@H](O)C4)cc(C(F)(F)F)n3)CC2)C1` [Compound 22, {1-(cis-4-{[4-{[(3S)-3-hydroxypyrrolidin-1-yl]methyl}-6-(trifluoromethyl)pyridin-2-yl]oxy}cyclohexyl)-3-[4-(7H-pyrrolo[2,3-d]pyrimidin-4-yl)-1H-pyrazol-1-yl]azetidin-3-yl}acetonitrile], the JAK2/JAK1 in test [1] is recorded as over 10. In test [2], this molecule registered a half-maximal inhibitory concentration (IC50) of under 0.01 µM.
